What was measured:
[1] = Pharmacokinetics comparative experiment, plasma concentration by LC/MS2 after capsule intragastric administration; assay type: in vivo; conditions: SD rats, 133 mg/kg, solid capsule intragastric administration
Text: By means of a pharmacokinetics comparative experiment, the […] feature of the crystalline form I provided herein after administration is compared with that of the amorphous solid of Example 1 as a reference sample.
SD rats (all male, weight of 260-280 g) were randomizely grouped, each group of 3 animals. The medication group received the crystalline form compound (No. S08S02S15a) of the Example 2, the crystalline form compound (No. S08S04S22a) of the Example 7, and the crystalline form compound (No. S08S19S24a) of the Example 8, respectively, and the control group received the reference sample (the amorphous solid of Example 1). The animals were fasted for 12 hours before administration, and the dosage of administration was 133 mg/kg. The corresponding medications were administered by intragastric administration using a solid capsule administration system (Size 9el Rat Box+Foam+Funnel+Syringe). Rat plasma samples were collected before administration, and 0.08, 0.16, 0.33, 0.5, 1, 1.5, 2, 3, 4, 6, and 8 h after administration, respectively. After heparin tube anticoagulation, centrifugation was performed at 5000 rpm for 10 min at a temperature of 4° C. A plasma supernatant sample was taken and subjected to protein precipitation using methanol, and then, the medication concentration in the plasma was monitored by LC/MS2.

[2] = Thermogravimetric analysis (TGA); assay type: physicochemical; conditions: for slow weight loss (TGA): before about 120° C., showing that it is an anhydrate; for decomposition temperature (TGA): nitrogen, ramp 10° C./min
Protocol: The thermogravimetric analyzer (TGA) involved herein is Q500TGA from TA Instruments; detection conditions: a platinum crucible, a protective atmosphere of nitrogen, a gas flow rate of 40 mL/min; and the following detection method: a Hi-Res sensitivity of 3.0, ramp 10.00° C./min, res 5.0 to 120.00° C., and ramp 10.00° C./min to 350° C.

[3] = compared with amorphous solid of Example 1

- exposure AUC [1, 3]: effectively improve
- half-life period T1/2 [1, 3]: effectively improve
- maximum blood concentration Cmax [1, 3]: effectively improve
- medication dissolution ([1]; compared with reference sample (amorphous solid of Example 1), FIGS. 21-24): improving
- slow weight loss (TGA) ([2]; listed as Example 2): about 0.5 wt %
- slow weight loss (TGA) ([2]; listed as Example 6): about 0.5 wt %
- slow weight loss (TGA) ([2]; listed as Example 7): about 1.4 wt %
- slow weight loss (TGA) ([2]; listed as Example 8): about 0.2 wt %
- slow weight loss (TGA) ([2]; listed as Example 9): about 1.2 wt %
- slow weight loss (TGA) ([2]; listed as Example 14): about 0.5 wt %
- slow weight loss (TGA) ([2]; listed as Example 24): about 0.6 wt %
- decomposition temperature (TGA) ([2]; listed as Example 2): about 307 °C
- decomposition temperature (TGA) ([2]; listed as Example 6): about 300 °C
- decomposition temperature (TGA) ([2]; listed as Example 7): about 302 °C
- decomposition temperature (TGA) ([2]; listed as Example 8): about 314 °C
- decomposition temperature (TGA) ([2]; listed as Example 9): about 303 °C
- decomposition temperature (TGA) ([2]; listed as Example 14): about 310 °C
- decomposition temperature (TGA) ([2]; listed as Example 24): about 317 °C
Structure (SMILES): CC(C)[C@H](N)C(=O)NCCCS(=O)(=O)O [Crystalline Form I, 3-((L-valyl)amino)-1-propanesulfonic acid]

Reference: patent publication US12338205B2, “Crystalline form of 3-((L-valyl) amino)-1-propanesulfonic acid” (RISEN (SUZHOU) PHARMA TECH CO., LTD., priority 2018, dated 2025)
